Reference: ChEMBL document CHEMBL4507259 (2021)

Columns and labels:
[1] = target: Sodium-dependent serotonin transporter (Homo sapiens, UniProt P31645); test: 5-HT transporter (h) CEREP ligand profiling; details: filed as antagonist, Compound concentration 10.0 uM
[2] = target: T1, Muscarinic acetylcholine receptor M5 (Homo sapiens) (UniProt P08912); test: M5 (h) CEREP ligand profiling; details: filed as antagonist, Compound concentration 10.0 uM
T1 sequence (whole entry): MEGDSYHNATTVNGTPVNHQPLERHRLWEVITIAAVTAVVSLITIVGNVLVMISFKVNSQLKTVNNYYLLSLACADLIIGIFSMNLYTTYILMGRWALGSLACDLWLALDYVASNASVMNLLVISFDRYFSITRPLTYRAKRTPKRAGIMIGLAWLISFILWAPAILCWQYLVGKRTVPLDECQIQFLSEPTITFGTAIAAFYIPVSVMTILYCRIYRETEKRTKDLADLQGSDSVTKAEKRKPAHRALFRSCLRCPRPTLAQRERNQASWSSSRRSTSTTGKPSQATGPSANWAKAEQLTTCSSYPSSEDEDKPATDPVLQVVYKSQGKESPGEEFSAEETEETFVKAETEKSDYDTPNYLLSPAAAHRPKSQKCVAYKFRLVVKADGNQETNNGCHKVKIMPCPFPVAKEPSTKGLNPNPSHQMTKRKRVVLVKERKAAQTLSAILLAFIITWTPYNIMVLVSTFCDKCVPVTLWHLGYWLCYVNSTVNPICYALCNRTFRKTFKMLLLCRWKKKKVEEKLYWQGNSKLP

[3] = tested on: Tyrosine-protein kinase ABL1 (Homo sapiens), P00519 [H396P]; details: Compound concentration 1000.0 nM
[4] = tested on: Tyrosine-protein kinase ABL1 (Homo sapiens), P00519 [M351T]; details: Compound concentration 1000.0 nM
[5] = target: Calcium/calmodulin-dependent protein kinase type II subunit alpha (Homo sapiens) (UniProt Q9UQM7); details: Compound concentration 1000.0 nM
[6] = target: Calcium/calmodulin-dependent protein kinase type IV (Homo sapiens) (UniProt Q16566); details: Compound concentration 1000.0 nM
[7] = target: Cyclin-dependent kinase 11A (Homo sapiens) (UniProt Q9UQ88); details: Compound concentration 1000.0 nM
[8] = target: Cyclin-dependent kinase 2 (Homo sapiens) (UniProt P24941); details: Compound concentration 1000.0 nM
[9] = target: Cyclin-dependent kinase 4 (Homo sapiens) (UniProt P11802); details: Compound concentration 1000.0 nM
[10] = tested on: Epidermal growth factor receptor (Homo sapiens), P00533 [G719S]; details: Compound concentration 1000.0 nM
[11] = tested on: Receptor-type tyrosine-protein kinase FLT3 (Homo sapiens), P36888 [UNDEFINED MUTATION]; details: Compound concentration 1000.0 nM
[12] = target: Glycogen synthase kinase-3 alpha (Homo sapiens) (UniProt P49840); details: Compound concentration 1000.0 nM
[13] = target: Insulin receptor (Homo sapiens) (UniProt P06213); details: Compound concentration 1000.0 nM
[14] = target: Tyrosine-protein kinase JAK2 (Homo sapiens) (UniProt O60674); details: Compound concentration 1000.0 nM
[15] = target: LIM domain kinase 1 (Homo sapiens) (UniProt P53667); details: Compound concentration 1000.0 nM
[16] = target: Dual specificity mitogen-activated protein kinase kinase 3 (Homo sapiens) (UniProt P46734); details: Compound concentration 1000.0 nM
[17] = target: Myosin-IIIb (Homo sapiens) (UniProt Q8WXR4); details: Compound concentration 1000.0 nM
[18] = target: Mitogen-activated protein kinase 14 (Homo sapiens) (UniProt Q16539); details: Compound concentration 1000.0 nM
[19] = target: Mitogen-activated protein kinase 13 (Homo sapiens) (UniProt O15264); details: Compound concentration 1000.0 nM
[20] = target: Cyclin-dependent kinase 16 (Homo sapiens) (UniProt Q00536); details: Compound concentration 1000.0 nM
[21] = target: Platelet-derived growth factor receptor alpha (Homo sapiens) (UniProt P16234); details: Compound concentration 1000.0 nM
[22] = target: Phosphatidylinositol 4,5-bisphosphate 3-kinase catalytic subunit alpha isoform (Homo sapiens) (UniProt P42336); details: Compound concentration 1000.0 nM
[23] = target: Phosphatidylinositol 4-kinase beta (Homo sapiens) (UniProt Q9UBF8); details: Compound concentration 1000.0 nM
[24] = target: Serine/threonine-protein kinase pim-3 (Homo sapiens) (UniProt Q86V86); details: Compound concentration 1000.0 nM
[25] = target: Phosphatidylinositol 5-phosphate 4-kinase type-2 beta (Homo sapiens) (UniProt P78356); details: Compound concentration 1000.0 nM
[26] = target: Serine/threonine-protein kinase PLK2 (Homo sapiens) (UniProt Q9NYY3); details: Compound concentration 1000.0 nM
[27] = target: Protein kinase C epsilon type (Homo sapiens) (UniProt Q02156); details: Compound concentration 1000.0 nM
[28] = tested on: Proto-oncogene tyrosine-protein kinase receptor Ret (Homo sapiens), P07949 [V804L]; details: Compound concentration 1000.0 nM
[29] = target: Ribosomal protein S6 kinase alpha-2 (Homo sapiens) (UniProt Q15349); details: Compound concentration 1000.0 nM
[30] = target: Serine/threonine-protein kinase 32B (Homo sapiens) (UniProt Q9NY57); details: Compound concentration 1000.0 nM
[31] = target: 5-hydroxytryptamine receptor 1D (Homo sapiens) (UniProt P28221); details: Compound concentration 10.0 uM
[32] = target: 5-hydroxytryptamine receptor 6 (Homo sapiens) (UniProt P50406); details: Compound concentration 10.0 uM
[33] = target: Muscarinic acetylcholine receptor M3 (Homo sapiens) (UniProt P20309); details: Compound concentration 10.0 uM

Mitogen-activated protein kinase 14 (Homo sapiens), sequence (Q16539 whole entry): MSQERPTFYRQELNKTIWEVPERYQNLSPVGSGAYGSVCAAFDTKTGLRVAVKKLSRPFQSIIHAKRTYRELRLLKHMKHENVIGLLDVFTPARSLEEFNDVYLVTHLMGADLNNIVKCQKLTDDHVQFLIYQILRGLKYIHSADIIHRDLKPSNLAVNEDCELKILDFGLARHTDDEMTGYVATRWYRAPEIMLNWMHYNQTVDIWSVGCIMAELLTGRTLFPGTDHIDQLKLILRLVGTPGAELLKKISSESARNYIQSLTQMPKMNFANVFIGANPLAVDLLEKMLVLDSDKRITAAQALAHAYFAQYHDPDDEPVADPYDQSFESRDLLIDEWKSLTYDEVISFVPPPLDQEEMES
LIM domain kinase 1 (Homo sapiens), sequence (P53667 whole entry, looked up, the tested form may be a part): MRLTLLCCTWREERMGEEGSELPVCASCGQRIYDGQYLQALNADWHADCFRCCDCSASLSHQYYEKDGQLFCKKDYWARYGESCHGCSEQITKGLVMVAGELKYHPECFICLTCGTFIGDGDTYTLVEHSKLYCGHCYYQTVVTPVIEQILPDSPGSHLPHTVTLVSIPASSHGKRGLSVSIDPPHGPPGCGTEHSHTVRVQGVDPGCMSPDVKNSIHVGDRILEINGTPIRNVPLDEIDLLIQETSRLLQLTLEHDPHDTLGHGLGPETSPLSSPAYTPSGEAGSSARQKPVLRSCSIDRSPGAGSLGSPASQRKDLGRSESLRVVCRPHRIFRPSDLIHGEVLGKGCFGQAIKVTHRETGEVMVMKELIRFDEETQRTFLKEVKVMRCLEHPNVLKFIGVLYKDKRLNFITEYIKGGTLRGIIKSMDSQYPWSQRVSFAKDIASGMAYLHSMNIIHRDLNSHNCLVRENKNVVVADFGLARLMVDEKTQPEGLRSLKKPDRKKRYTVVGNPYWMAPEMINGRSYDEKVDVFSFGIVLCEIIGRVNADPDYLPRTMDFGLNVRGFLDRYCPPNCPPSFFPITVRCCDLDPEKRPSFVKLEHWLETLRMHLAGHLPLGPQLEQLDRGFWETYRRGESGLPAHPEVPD
Mitogen-activated protein kinase 13 (Homo sapiens), sequence (O15264 whole entry): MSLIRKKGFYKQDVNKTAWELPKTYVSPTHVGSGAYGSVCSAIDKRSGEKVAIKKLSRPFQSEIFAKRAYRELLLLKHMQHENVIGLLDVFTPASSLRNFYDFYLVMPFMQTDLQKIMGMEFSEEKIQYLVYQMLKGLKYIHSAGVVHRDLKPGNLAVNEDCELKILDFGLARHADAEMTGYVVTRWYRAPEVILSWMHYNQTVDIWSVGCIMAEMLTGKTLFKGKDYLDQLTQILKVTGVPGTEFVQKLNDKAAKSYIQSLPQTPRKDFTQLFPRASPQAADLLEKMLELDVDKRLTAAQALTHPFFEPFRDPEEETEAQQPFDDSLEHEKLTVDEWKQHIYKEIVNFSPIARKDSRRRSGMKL
Calcium/calmodulin-dependent protein kinase type IV (Homo sapiens), sequence (Q16566 whole entry): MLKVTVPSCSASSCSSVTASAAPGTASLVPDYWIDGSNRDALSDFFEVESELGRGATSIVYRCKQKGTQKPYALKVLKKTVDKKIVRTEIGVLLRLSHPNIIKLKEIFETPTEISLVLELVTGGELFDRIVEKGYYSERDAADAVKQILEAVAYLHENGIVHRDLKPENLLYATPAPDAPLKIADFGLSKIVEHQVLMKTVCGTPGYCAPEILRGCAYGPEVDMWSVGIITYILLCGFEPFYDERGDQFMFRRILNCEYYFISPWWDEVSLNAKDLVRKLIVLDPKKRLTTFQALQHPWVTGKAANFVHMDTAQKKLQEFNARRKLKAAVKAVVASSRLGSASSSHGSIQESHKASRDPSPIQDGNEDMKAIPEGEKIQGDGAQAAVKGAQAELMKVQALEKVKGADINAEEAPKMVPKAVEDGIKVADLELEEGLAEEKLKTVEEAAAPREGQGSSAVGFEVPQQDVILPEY
Myosin-IIIb (Homo sapiens), sequence (Q8WXR4 whole entry): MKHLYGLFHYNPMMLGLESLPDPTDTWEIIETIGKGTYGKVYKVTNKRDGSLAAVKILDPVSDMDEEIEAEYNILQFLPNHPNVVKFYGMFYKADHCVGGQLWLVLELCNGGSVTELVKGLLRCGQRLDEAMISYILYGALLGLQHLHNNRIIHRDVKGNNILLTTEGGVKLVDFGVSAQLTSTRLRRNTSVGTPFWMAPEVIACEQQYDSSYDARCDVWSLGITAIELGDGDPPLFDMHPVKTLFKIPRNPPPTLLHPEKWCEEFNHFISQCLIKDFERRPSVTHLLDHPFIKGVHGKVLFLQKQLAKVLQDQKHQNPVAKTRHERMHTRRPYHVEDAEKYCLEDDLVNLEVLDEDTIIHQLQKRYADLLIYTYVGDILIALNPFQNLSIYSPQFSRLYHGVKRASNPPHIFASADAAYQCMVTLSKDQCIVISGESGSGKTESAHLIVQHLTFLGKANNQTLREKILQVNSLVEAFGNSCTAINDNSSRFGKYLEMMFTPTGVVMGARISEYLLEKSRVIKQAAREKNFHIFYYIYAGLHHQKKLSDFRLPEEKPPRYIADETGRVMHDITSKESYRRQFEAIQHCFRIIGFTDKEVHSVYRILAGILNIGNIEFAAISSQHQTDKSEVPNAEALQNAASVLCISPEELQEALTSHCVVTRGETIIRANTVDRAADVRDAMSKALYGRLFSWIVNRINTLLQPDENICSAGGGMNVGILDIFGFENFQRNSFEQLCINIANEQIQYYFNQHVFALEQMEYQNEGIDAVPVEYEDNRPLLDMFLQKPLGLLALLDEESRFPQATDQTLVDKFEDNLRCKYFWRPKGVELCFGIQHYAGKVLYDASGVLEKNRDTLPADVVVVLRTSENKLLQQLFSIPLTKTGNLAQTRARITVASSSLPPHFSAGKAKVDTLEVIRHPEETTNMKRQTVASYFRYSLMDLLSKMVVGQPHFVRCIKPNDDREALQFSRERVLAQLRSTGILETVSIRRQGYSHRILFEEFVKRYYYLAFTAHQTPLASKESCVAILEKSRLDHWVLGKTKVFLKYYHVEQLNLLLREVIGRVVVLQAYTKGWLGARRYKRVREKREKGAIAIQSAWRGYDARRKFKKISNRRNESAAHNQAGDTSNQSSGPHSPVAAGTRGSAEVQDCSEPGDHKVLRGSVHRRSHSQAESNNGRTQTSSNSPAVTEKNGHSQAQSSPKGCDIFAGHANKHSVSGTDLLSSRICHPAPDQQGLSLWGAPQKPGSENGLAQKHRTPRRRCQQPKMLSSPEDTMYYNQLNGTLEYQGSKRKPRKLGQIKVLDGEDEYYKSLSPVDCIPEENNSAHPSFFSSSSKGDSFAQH
Serine/threonine-protein kinase 32B (Homo sapiens), sequence (Q9NY57 whole entry): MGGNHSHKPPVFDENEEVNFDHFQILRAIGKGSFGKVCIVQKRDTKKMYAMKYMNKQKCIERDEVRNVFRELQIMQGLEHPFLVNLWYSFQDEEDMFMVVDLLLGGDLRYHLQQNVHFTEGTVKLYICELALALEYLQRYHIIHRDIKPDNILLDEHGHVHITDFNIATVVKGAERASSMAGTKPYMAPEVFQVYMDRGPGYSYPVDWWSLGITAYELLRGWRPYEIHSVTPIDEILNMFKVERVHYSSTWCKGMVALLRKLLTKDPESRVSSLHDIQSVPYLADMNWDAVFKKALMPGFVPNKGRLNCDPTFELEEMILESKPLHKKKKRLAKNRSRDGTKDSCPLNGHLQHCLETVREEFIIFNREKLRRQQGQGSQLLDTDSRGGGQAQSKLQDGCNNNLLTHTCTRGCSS
Receptor-type tyrosine-protein kinase FLT3 (Homo sapiens), P36888 [UNDEFINED MUTATION], sequence (P36888 whole entry, looked up, change not shown): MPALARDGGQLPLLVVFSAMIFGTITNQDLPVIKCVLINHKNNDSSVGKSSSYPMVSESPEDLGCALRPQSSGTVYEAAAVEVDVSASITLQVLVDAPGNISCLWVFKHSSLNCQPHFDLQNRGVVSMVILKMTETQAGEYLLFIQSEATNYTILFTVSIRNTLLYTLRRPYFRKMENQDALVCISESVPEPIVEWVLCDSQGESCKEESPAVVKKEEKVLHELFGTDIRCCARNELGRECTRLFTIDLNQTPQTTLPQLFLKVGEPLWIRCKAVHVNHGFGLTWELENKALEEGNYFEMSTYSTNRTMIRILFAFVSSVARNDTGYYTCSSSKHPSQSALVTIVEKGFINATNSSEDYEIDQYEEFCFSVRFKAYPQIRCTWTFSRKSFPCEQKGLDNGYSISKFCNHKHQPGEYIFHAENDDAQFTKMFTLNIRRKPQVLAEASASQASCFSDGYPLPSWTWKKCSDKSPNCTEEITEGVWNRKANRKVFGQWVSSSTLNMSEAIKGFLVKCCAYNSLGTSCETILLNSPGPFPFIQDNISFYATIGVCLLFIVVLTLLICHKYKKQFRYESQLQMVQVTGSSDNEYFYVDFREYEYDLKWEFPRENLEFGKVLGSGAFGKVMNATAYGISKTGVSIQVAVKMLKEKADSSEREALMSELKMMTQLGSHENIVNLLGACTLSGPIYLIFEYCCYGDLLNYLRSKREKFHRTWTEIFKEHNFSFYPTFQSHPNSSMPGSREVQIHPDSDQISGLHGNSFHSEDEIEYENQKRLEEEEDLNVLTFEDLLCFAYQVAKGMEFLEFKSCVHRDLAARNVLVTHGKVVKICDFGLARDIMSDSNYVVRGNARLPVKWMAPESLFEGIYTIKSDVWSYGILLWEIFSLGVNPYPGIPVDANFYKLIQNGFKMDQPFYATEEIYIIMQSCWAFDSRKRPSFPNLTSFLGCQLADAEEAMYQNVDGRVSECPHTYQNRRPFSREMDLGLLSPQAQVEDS

SMILES	inhibition [1] [%]	inhibition [2] [%]	residual activity [3] [%]	residual activity [4] [%]	residual activity [5] [%]	residual activity [6] [%]	residual activity [7] [%]	residual activity [8] [%]	residual activity [9] [%]	residual activity [10] [%]	residual activity [11] [%]	residual activity [12] [%]	residual activity [13] [%]	residual activity [14] [%]	residual activity [15] [%]	residual activity [16] [%]	residual activity [17] [%]	residual activity [18] [%]	residual activity [19] [%]	residual activity [20] [%]	also measured
CNC(=O)Nc1ccc2c(c1)[C@@]1(CC2)OC(=O)N(CC(=O)N(Cc2ccc(F)cc2)[C@@H](C)C(F)(F)F)C1=O [A-486]	40	-8	83	88	100	85	94	100	100	100	87	92	73	100	87	87	100	100	97	83	residual activity [21]: 83%; residual activity [22]: 28%; residual activity [23]: 71%; residual activity [24]: 89%; residual activity [25]: 60%; residual activity [26]: 92%; residual activity [27]: 99%; residual activity [28]: 94%; residual activity [29]: 100%; residual activity [30]: 67%; inhibition [31]: 2.22%; inhibition [32]: 24.1%; inhibition [33]: 8.23%
CNC(=O)Nc1ccc2c(c1)CC[C@@]21OC(=O)N(CC(=O)N(Cc2ccc(F)cc2)[C@@H](C)C(F)(F)F)C1=O [A-485]	99	8	74	100	91	75	83	100	79	95	84	99	81	83	91	71	88	100	83	75	residual activity [21]: 93%; residual activity [22]: 83%; residual activity [23]: 74%; residual activity [24]: 97%; residual activity [25]: 69%; residual activity [26]: 91%; residual activity [27]: 22%; residual activity [28]: 91%; residual activity [29]: 90%; residual activity [30]: 90%; inhibition [31]: 18%; inhibition [32]: 32.6%; inhibition [33]: 9.06%
